# Reference: US20240277795A1, “INHIBITORS OF CYSTEINE PROTEASES AND METHODS OF USE THEREOF” (Pardes Biosciences, Inc., priority 2021, published 2024)
# Read-outs that look alike come from different tables or passages of the source.
# What was measured:
# [1] = test system: HCoV 229E; assay: HCoV 229E cytopathic effect (CPE) assay; assay type: cell-based; settings: read-out: 229E CPE EC50
# Description: Compounds were assayed using standard methods against multiple coronaviral strains, including HCoV 229E and OC43 strains. The antiviral activity of compounds was calculated based on the protection of the virus-induced CPE at each concentration normalized by the virus control.
# Reagents and instruments used in this assay include luminescent cell viability assay kit CellTiter Glo (Promega) and Microplate Reader Synergy2 (BioTek).
# Cytopathic effect (CPE) was measured by CellTiter Glo following the manufacturer's manual. The antiviral activity of compounds was calculated based on the protection of the virus-induced CPE at each concentration normalized by the virus control.
# The cytotoxicity of compounds was assessed under the same conditions, but without virus infection, in parallel. Cell viability was measured with CellTiter Glo. The antiviral activity and cytotoxicity of compounds were expressed as % Inhibition and % Viability, respectively, and calculated with formulas.
# [2] = molecular target: OC43 Mpro (Human coronavirus OC43, UniProt P0C6X6); assay: OC43 Mpro enzymatic assay; assay type: biochemical, HCoV OC43
# Description: (§1) Compounds were assayed using standard methods to assess compound activity and IC50. As an exemplary for assessment of the SARS-COV2 Mpro, the C-His6-tagged Mpro (NC_045512) was cloned, expressed in E. coli and purified. The assay buffer contained 20 mM of Tris-HCl (pH 7.3), 100 mM of NaCl, 1 mM of EDTA, 5 mM of TCEP and 0.1% BSA. The final concentrations of the Mpro protein and substrate were 25 nM and 25 μM, respectively, in the Mpro enzymatic assay. The Km of the Mpro substrate for the protease was 13.5 μM.
# (§2) The compounds were added to an assay plate. For 100% inhibition control (HPE, hundred percent effect), 1 μM GC376 was added. For no inhibition control (ZPE, zero percent effect), no compound was added.
# (§3) IC50 values of compounds were calculated with the GraphPad Prism software using the nonlinear regression model of log(inhibitor) vs. response—Variable slope (four parameters). The inhibition activity was calculated using the formula below, IC50 values is calculated using the Inhibition % data.
# (§4) [formula] • #HEP: Hundred percent effect controls. Containing substrate+enzyme+1 μM GC376. • ZPE: Zero percent effective controls. Containing enzyme+substrate, no compound. • Sample: Compound activity testing wells. Containing compound+enzyme+substrate. • BG: Compound background control wells. Containing compound+substrate, no enzyme.
# [3] = molecular target: SARS-COV2 Mpro (Severe acute respiratory syndrome coronavirus 2, UniProt P0DTD1); assay: COVID-19 (nCoV-2019, SARS-CoV2) Mpro enzymatic assay; assay type: biochemical
# Description: as §1, with “assay.” for “assay. The Km of the Mpro substrate for the protease was 13.5 μM.”
# The compounds were added to an assay plate. For 100% inhibition control (HPE, hundred percent effect), 1 μM GC376 was added.
# as §3
# [formula] • #HEP: Hundred percent effect controls. […] Containing enzyme+substrate, no compound. • Sample: Compound activity testing wells. Containing compound+enzyme+substrate. • BG: Compound background control wells. Containing compound+substrate, no enzyme.
# [4] = molecular target: 229E Mpro (Human coronavirus 229E, UniProt P0C6X1); assay: 229E Mpro enzymatic assay; assay type: biochemical, HCoV 229E
# Description: as §1, §2, §3, §4
# [5] = Table 3, read-out: COVID-19 Mpro IC50
# [6] = Table 5, read-out: COVID-19 Mpro IC50
# OC43 Mpro, sequence (P0C6X6 3247-3549): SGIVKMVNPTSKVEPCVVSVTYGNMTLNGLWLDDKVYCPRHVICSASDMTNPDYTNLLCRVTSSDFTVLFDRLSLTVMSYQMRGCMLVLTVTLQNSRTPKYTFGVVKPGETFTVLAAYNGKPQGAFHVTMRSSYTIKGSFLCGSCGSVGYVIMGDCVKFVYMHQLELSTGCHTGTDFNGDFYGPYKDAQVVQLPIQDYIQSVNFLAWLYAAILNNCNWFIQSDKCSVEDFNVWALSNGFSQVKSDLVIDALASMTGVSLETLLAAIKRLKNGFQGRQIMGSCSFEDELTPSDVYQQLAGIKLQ
# 229E Mpro, sequence (P0C6X1 2966-3267): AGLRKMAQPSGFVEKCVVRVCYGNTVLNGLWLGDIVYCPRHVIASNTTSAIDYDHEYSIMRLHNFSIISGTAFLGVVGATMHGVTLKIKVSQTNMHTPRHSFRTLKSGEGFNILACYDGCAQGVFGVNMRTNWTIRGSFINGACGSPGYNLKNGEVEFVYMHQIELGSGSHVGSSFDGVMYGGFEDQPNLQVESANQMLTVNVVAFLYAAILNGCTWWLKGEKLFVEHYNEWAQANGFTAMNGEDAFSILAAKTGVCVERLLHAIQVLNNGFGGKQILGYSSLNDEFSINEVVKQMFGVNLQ
SMILES,"EC50 ([1]; Table 4, CellTiter Glo) [nM]",IC50 ([2]; Table 3) [nM],IC50 [3] [nM],IC50 ([4]; Table 3) [nM],EC50 [1] [nM],"IC50 [3, 5] [nM]",IC50 ([2]; Table 5) [nM],"IC50 [3, 6] [nM]",IC50 ([4]; Table 5) [nM]
"N#C[C@H](C[C@@H]1CC2(CC2)NC1=O)NC(=O)[C@H](CC1CC1)NC(=O)[C@H](Cc1cccc2ccccc12)NC(=O)OCc1ccccc1 [Compound 110, benzyl((S)-1-(((S)-1-(((S)-1-cyano-2-((R)-5-oxo-4-azaspiro[2.4]heptan-6-yl)ethyl)amino)-3-cyclopropyl-1-oxopropan-2-yl)amino)-3-(naphthalen-1-yl)-1-oxopropan-2-yl)carbamate]",< 2000,< 2000,< 2000,< 2000,,,,,
"CC(C)(C)[C@H](NC(=O)c1cnccn1)C(=O)N1C[C@H]2[C@@H]([C@H]1C(=O)N[C@H](C#N)C[C@@H]1CC3(CC3)NC1=O)C2(C)C [Compound 129, (1R,2S,5S)—N-[(1S)-1-cyano-2-[(6R)-5-oxo-4-azaspiro[2.4]heptan-6-yl]ethyl]-3-[(2S)-3,3-dimethyl-2-(pyrazine-2-carbonylamino)butanoyl]-6,6-dimethyl-3-azabicyclo[3.1.0]hexane-2-carboxamide]",< 2000,< 2000,< 2000,< 2000,,,,,
"CC(C)(C)[C@H](NC(=O)OCC(F)(F)F)C(=O)N1C[C@H]2[C@@H]([C@H]1C(=O)N[C@H](C#N)C[C@@H]1CC3(CC3)NC1=O)C2(C)C [Compound 132, 2,2,2-trifluoroethyl ((S)-1-((1R,2S,5S)-2-(((S)-1-cyano-2-((R)-5-oxo-4-azaspiro[2.4]heptan-6-yl)ethyl)carbamoyl)-6,6-dimethyl-3-azabicyclo[3.1.0]hexan-3-yl)-3,3-dimethyl-1-oxobutan-2-yl)carbamate]",,< 2000,,< 2000,< 2000,< 2000,,,
"COCCOC(=O)N[C@H](C(=O)N1C[C@H]2[C@@H]([C@H]1C(=O)N[C@H](C#N)C[C@@H]1CC3(CC3)NC1=O)C2(C)C)C(C)(C)C [Compound 133, 2-methoxyethyl ((S)-1-((1R,2S,5S)-2-(((S)-1-cyano-2-((R)-5-oxo-4-azaspiro[2.4]heptan-6-yl)ethyl)carbamoyl)-6,6-dimethyl-3-azabicyclo[3.1.0]hexan-3-yl)-3,3-dimethyl-1-oxobutan-2-yl)carbamate]",< 2000,< 2000,< 2000,< 2000,,,,,
"CC(C)(C)[C@H](NC(=O)OC1CCOC1)C(=O)N1C[C@H]2[C@@H]([C@H]1C(=O)N[C@H](C#N)C[C@@H]1CC3(CC3)NC1=O)C2(C)C (stereo partly drawn) [Compound 134, tetrahydrofuran-3-yl N-[(1S)-1-[(1R,2S,5S)-2-[[(1S)-1-cyano-2-[(6R)-5-oxo-4-azaspiro[2.4]heptan-6-yl]ethyl]carbamoyl]-6,6-dimethyl-3-azabicyclo[3.1.0]hexane-3-carbonyl]-2,2-dimethyl-propyl]carbamate]",< 2000,< 2000,< 2000,< 2000,,,,,
"CC(C)(C)C(=O)N[C@H](C(=O)N1C[C@H]2[C@@H]([C@H]1C(=O)N[C@H](C#N)C[C@@H]1CC3(CC3)NC1=O)C2(C)C)C(C)(C)C [Compound 135, (1R,2S,5S)—N-[(1S)-1-cyano-2-[(6R)-5-oxo-4-azaspiro[2.4]heptan-6-yl]ethyl]-3-[(2S)-2-(2,2-dimethylpropanoylamino)-3,3-dimethyl-butanoyl]-6,6-dimethyl-3-azabicyclo[3.1.0]hexane-2-carboxamide]",< 2000,< 2000,< 2000,< 2000,,,,,
"CC(C)(C)[C@H](NC(=O)C1(C(F)(F)F)CC1)C(=O)N1C[C@H]2[C@@H]([C@H]1C(=O)N[C@H](C#N)C[C@@H]1CC3(CC3)NC1=O)C2(C)C [Compound 136, (1R,2S,5S)—N-[(1S)-1-cyano-2-[(6R)-5-oxo-4-azaspiro[2.4]heptan-6-yl]ethyl]-3-[(2S)-3,3-dimethyl-2-[[1-(trifluoromethyl)cyclopropanecarbonyl]amino]butanoyl]-6,6-dimethyl-3-azabicyclo[3.1.0]hexane-2-carboxamide]",< 2000,< 2000,< 2000,< 2000,,,,,
"C[C@@H](OC(C)(C)C(F)(F)F)[C@H](NC(=O)C(F)(F)F)C(=O)N1C[C@H]2[C@@H]([C@H]1C(=O)N[C@H](C#N)C[C@@H]1CC(C)(C)NC1=O)C2(C)C [Compound 357, (1R,2S,5S)—N-[(1S)-1-cyano-2-[(3R)-5,5-dimethyl-2-oxo-pyrrolidin-3-yl]ethyl]-6,6-dimethyl-3-[(2S,3R)-2-[(2,2,2-trifluoroacetyl)amino]-3-(2,2,2-trifluoro-1,1-dimethyl-ethoxy)butanoyl]-3-azabicyclo[3.1.0]hexane-2-carboxamide]",,,,,,,< 2000,< 2000,< 2000
"C[C@@H](OC(C)(C)C(F)(F)F)[C@H](NC(=O)C(F)(F)F)C(=O)N1C[C@H]2[C@@H]([C@H]1C(=O)N[C@H](C#N)C[C@@H]1CC3(CC3)NC1=O)C2(C)C [Compound 358, (1R,2S,5S)—N-[(1S)-1-cyan-2-[(6R)-5-oxo-4-azaspiro[2.4]heptan-6-yl]ethyl]-6,6-dimethyl-3-[(2S,3R)-2-[(2,2,2-trifluoroacetyl)amino]-3-(2,2,2-trifluoro-1,1-dimethyl-ethoxy)butanoyl]-3-azabicyclo[3.1.0]hexane-2-carboxamide]",,,,,,,< 2000,< 2000,< 2000
"CC1(C)CCC(C[C@@H](C#N)NC(=O)[C@@H]2[C@@H]3[C@H](CN2C(=O)[C@@H](NC(=O)C(F)(F)F)C(C)(C)C)C3(C)C)C(=O)N1 (stereo partly drawn) [Compound 361, (1R,5S)—N-[(1S)-1-cyano-2-(6,6-dimethyl-2-oxo-3-piperidyl)ethyl]-3-[(2S)-3,3-dimethyl-2-[(2,2,2-trifluoroacetyl)amino]butanoyl]-6,6-dimethyl-3-azabicyclo[3.1.0]hexane-2-carboxamide]",,< 2000,,10000 to 30000,,< 2000,,,
"CC(C)(C)[C@H](NC(=O)C(F)(F)F)C(=O)N1C[C@H]2[C@@H]([C@H]1C(=O)N[C@H](C#N)C[C@@H]1CC3(CCC3)NC1=O)C2(C)C [Compound 362, (1R,2S,5S)—N-[(1S)-1-cyano-2-[(7R)-6-oxo-5-azaspiro[3.4]octan-7-yl]ethyl]-3-[(2S)-3,3-dimethyl-2-[(2,2,2-trifluoroacetyl)amino]butanoyl]-6,6-dimethyl-3-azabicyclo[3.1.0]hexane-2-carboxamide]",,< 2000,,< 2000,,< 2000,,,
CC(C)(C)[C@H](NC(=O)C(F)(F)F)C(=O)N1C[C@H]2[C@@H]([C@H]1C(=O)N[C@H](C#N)C[C@@]1(C)CC3(CC3)NC1=O)C2(C)C [Compound 375],,< 2000,,< 2000,,< 2000,,,
"CO[C@H](C)[C@H](NC(=O)C(F)(F)F)C(=O)N1C[C@H]2[C@@H]([C@H]1C(=O)N[C@H](C#N)C[C@@H]1CC3(CCC3)NC1=O)C2(C)C [Compound 425, (1R,2S,5S)—N-[(1S)-1-cyano-2-[(7R)-6-oxo-5-azaspiro[3.4]octan-7-yl]ethyl]-3-[(2S,3R)-3-methoxy-2-[(2,2,2-trifluoroacetyl)amino]butanoyl]-6,6-dimethyl-3-azabicyclo[3.1.0]hexane-2-carboxamide]",,,,,,,< 2000,< 2000,< 2000
"C[C@@H](OC(C)(C)C)[C@H](NC(=O)C(F)(F)F)C(=O)N1C[C@H]2[C@@H]([C@H]1C(=O)N[C@H](C#N)C[C@@H]1CCCNC1=O)C2(C)C [Compound 431, (1R, 2S, 5S)-3-((2S, 3R)-3-(tert-butoxy)-2-(2,2,2-trifluoroacetamido)butanoyl)-N—((S)-1-cyano-2-((S)-2-oxopiperidin-3-yl)ethyl)-6,6-dimethyl-3-azabicyclo[3.1.0]hexane-2-carboxamide]",,,,,,,< 2000,< 2000,< 2000
